Measured values taken from patent publication US20230061319A1, “METHODS OF TREATING TUMORS” (CoImmune, Inc., priority 2020, published 2023).

Assays:
[1] = tested on: CMV pp65 specific CTLs; assay: CMV pp65 specific recall CTL effector function (IFN-γ, TNF-α, IL-2 secretion, CD107a expression); format: cell-based, human
Experimental: PME-CD40L DCs derived from HLA-A2-positive donors and transfected with antigen-encoding mRNAs were co-cultured with purified CD8^+ T cells. All co-cultures were performed in R-10 media. CD8^+ T cells were purified using the CD8+ T Cell Negative Selection Kit II (Miltenyi Biotec) from non-adherent cells harvested from the monocyte adherence step. The CD8^+ cells were mixed with DCs at a 10:1 ratio and incubated in the presence of 0.2 µg/mL IL-2 and 10 ng/mL IL-7 (R&D Systems). DC/T cell co-cultures were re-stimulated on day 7 and supplemented with 20 units/mL IL-2 plus 10 ng/mL IL-7. Induction of primary immune responses to MART-1 and memory/recall responses to CMV pp65 were measured on day 10.
To identify antigen-specific T cell responses and the phenotype of the antigen specific cells, T cells were harvested on day 10 post-stimulation and incubated with peptide-pulsed T2 target cells at a ratio of 10:1 for 4 hour with Brefeldin A, Monensin (BD Biosciences) and CD107a PE-Cy5. […] After 4 hours of co-culture, responder T cells were stained for 10 minutes with the requisite peptide/pentamer reagent, then washed once and re-stained with CD8-Eflour605, CD45RA-FITC, and CD28-APC. Cells were then washed in PBS and stained with Aquadye (BD Biosciences) for analysis of viability. Labeled cells were then fixed and permeabilized in Fixation/Permeabilization solution (eBiosciences). Cells where then stained with IFN-γ-PECy7, TNFa-AF700 and IL-2-PerCPcy5.5 in permeabilization buffer and resuspended in FACs buffer prior to acquisition.
To assess the impact mTOR inhibition would have on CTL effector function in vitro, CMV pp65 specific CTLs were assayed for the ability to secret the cytokines IFN-y, TNF-α and IL-2, and express the degranulation marker CD107a, which serves as a surrogate marker to measure lytic activity. Data presented in FIG. 2A and FIG. 2B measures the absolute numbers of CMV […] specific CTLs that secrete IFN-y, TNF-α or IL-2, or express CD107a in response to CMV pp65 peptide pulsed target cells. The absolute numbers of CMV^+ CTLs shown have been corrected for background non-specific responses to display only the antigen specific response for each parameter.

[2] = tested on: mRCC patients; assay: Retrospective Kaplan-Meier analysis of overall survival in the Phase 3 ADAPT trial; format: in vivo, human
[3] = tested on: healthy donor PBMC T cells; assay: Two-way MLR of HLA-mismatched healthy donor PBMCs with mRCC patient plasma with or without everolimus; format: cell-based, human; conditions: MLR 7 days, 2% mRCC patient plasma
Experimental: PBMCs and DCs were thawed and washed in PBS (Lonza) prior to counting. Post maturation electroporated monocyte-derived dendritic cells (PME-CD40L) were generated from healthy donors as described in DeBenedette MA. et al., J Immunol. 181(8):5296-5305 (2008) (incorporated herein by reference in its entirety), and were co-electroporated with RNA encoding the pp65 CMV protein and RNA encoding CD40L. Viable cell counts were performed using BD TruCount Absolute Counting Tubes and propidium iodide (BD Biosciences) by flow cytometry. PBMCs and DCs were re-suspended in X-Vivo15 (with gentamicin and phenol red) (Lonza) containing 10% normal human AB serum (Valley biomedical). […] Frozen PBMC vials from 2 HLA-mismatched healthy donors were thawed and counted. […] Purified Mouse anti-human CD3 (clone OKT3, BD Biosciences) was used to stimulate healthy donor PBMCs in culture.
Given the observation that patients enrolled in the ADAPT study who received everolimus as 2nd line therapy after receiving DC therapy had better clinical outcomes, the concept that everolimus may reverse the immune suppressive activity of mRCC patient plasma and augment T cell responses was investigated. HLA-mismatched healthy donor PBMCs were mixed and cultured for 7 days in the presence of 2% mRCC patient plasma and with or without 20 ng of everolimus added on day 0, and the frequency of CD28^+ memory T cells was determined. […] However, this restoration was not statistically significant (p<0.087) when the suppressive activity of plasma samples collected from six individual mRCC patients was tested (FIG. 17C). In contrast, an increase in the frequency of proliferating CD28^-CD4 T cells was […] with plasma addition, which could be reversed with the addition of everolimus (FIG. 17D). A similar pattern was detected for CD8 T cells (a decrease in the frequency of proliferating CD28^+ CD8 T cells (FIG. 17E) and increase in the frequency of proliferating CD28^-CD8 T cells (FIG. 17F)) in the presence of plasma, which the addition of everolimus could reverse. […] To expand the understating whereby everolimus can reduce the immune suppressive impact of mRCC, patient plasma PBMCs were stimulated with autologous DCs presenting the pp65 CMV antigen. Healthy donor PBMCs and autologous DCs were mixed and cultured for 6 days in the presence of 2% mRCC patient plasma and with or without 20 ng of everolimus added on day 0. A small but reproducible frequency of proliferating CD28^+ CD4 T cells was induced, but very few CD28^-CD4 T cells (FIG. 18A left panel), which is unlike the CD4 T cell response seen in the MLR. […] A low frequency of proliferating CD28^- CD4 T cells was detected, and everolimus has little impact on the frequency of these cells (FIG. 18D).
Given the observation that plasma suppression selectively impacts the frequency of CD28^+ T cells and everolimus mediates a reduced suppression of this memory phenotype, the CD28^+ T cell subset was further characterized. HLA-mismatched healthy donor PBMCs were mixed and cultured for 7 days in the presence of 2% mRCC patient plasma and with or without 20 ng of everolimus added on day 0. […] Both the expression of CD25 and CD28 receptors on T cells are critical for full differentiation of memory T cells.
To understand the ability of everolimus to restore the frequency of CD25^+CD28^+ T cells, the expression of both CD25 and CD28 on CD8 T cells stimulated in the MLR or with autologous DCs in the presence of mRCC patient plasma was measured by the geometric mean fluorescence intensity (MFI).

[4] = than rapamycin (sirolimus); cited from earlier work
[5] = tested on: CD19^+ B cells; assay: Flow cytometry of CD38+ and LAP+ B cells in stimulated PBMCs from mRCC patients
Text: T cells were identified using APC-H7 Mouse Anti-Human CD3 antibody (clone SK7, BD Biosciences). T cell subsets were identified using Pacific Blue Mouse Anti-Human CD4 antibody (clone RPA-T4, BD Biosciences) and PerCP-Cy5.5 Mouse Anti-Human CD8 antibody (clone SK1, BD Biosciences). Activated T cells expressing the IL-2 alpha receptor were identified using Brilliant Violet 605 Mouse Anti-Human CD25 antibody (clone 2A3, BD Biosciences). The T cell costimulatory receptor that binds CD80 and CD86 was identified using PE Mouse Anti-Human CD28 antibody (clone CD28.2, BD Biosciences). B cells were identified using APC-eFluor 780 Mouse Anti-Human CD19 antibody (clone HIB19, ThermoFisher Scientific). Terminally differentiated B cells were identified using APC Mouse Anti-Human CD38 antibody. Proliferating cells were identified using Brilliant Violet Mouse Anti-Ki-67 antibody (clone B56, BD Biosciences). […] The multifunctional cytokine Human Transforming Growth Factor beta-1 was identified using PerCP-Cy5.5 Mouse anti-Human LAP (TGF-β1) antibody (clone TW4-2F8, Biolegend). 5 mL tubes containing cultured cells were centrifuged at 400 g for 5 minutes after which supernatant was decanted. Pelleted cells were washed by adding 2 mL of Stain Buffer containing fetal bovine serum and ≤0.09% sodium azide (BD Biosciences), briefly vortexed and centrifuged. Stain Buffer was decanted from tubes and pelleted samples were then surfaced stained with monoclonal antibody, briefly vortexed and incubated at room temperature for 15 minutes in the dark. Samples were then washed with 2 mL of PBS, centrifuged and resuspended in 1 mL of PBS. 2 µL of LIVE/DEAD Fixable Aqua Dead Cell dye (ThermoFisher Scientific) was added to each sample and incubated at 37° C. for 15 minutes. Samples were washed and centrifuged twice with 2 mL of Stain Buffer. Decanted and pelleted cells were vortexed and then fixed with 1 mL of diluted Transcription Factor Fix/Perm Buffer (BD Biosciences) for 15 minutes at room temperature. 1 mL of 1x Transcription Factor Perm/Wash Buffer (BD Biosciences) was added to each sample, briefly vortexed and centrifuged. Perm/Wash buffer was decanted from samples and washed again with 2 mL of Perm/Wash buffer. Perm/Wash Buffer was decanted from tubes and pelleted samples were then stained for intracellular antigens with monoclonal antibody, briefly vortexed and incubated at room temperature for 15 minutes in the dark. After incubation, samples were washed twice with Perm/Wash Buffer and resuspended in 350 µL of Stain Buffer. […]
Frozen patient PBMC were thawed, counted, and washed in PBS. […] The cells were counted and set up in culture at 1x10^6 cells/mL in X-VIVO 15 media. […]

[6] = 20 ng everolimus, statistically significant, six plasma samples

CO[C@H]1C[C@@H]2CC[C@@H](C)[C@@](O)(O2)C(=O)C(=O)N2CCCC[C@H]2C(=O)O[C@H]([C@H](C)C[C@@H]2CC[C@@H](OCCO)[C@H](OC)C2)CC(=O)[C@H](C)/C=C(\C)[C@@H](O)[C@@H](OC)C(=O)[C@H](C)C[C@H](C)/C=C/C=C/C=C/1C [everolimus]
numbers of CMV+ CTL secreting a cytokine or expressing CD107a ([1]; 10 ng/ml, compared to untreated CTLs): increased
increase in effector function of CMV+ CTL ([1]; 1 µg/ml): maintained
OS ([2]; SOC arm, everolimus during follow up): 13.4 months
OS ([2]; SOC arm, everolimus during treatment): 17.7 months
OS ([2]; combination arm (DC therapy), everolimus during follow up phase): 25.7 months
OS ([2]; combination arm (DC therapy), everolimus during treatment phase): 19.3 months
median OS ([2]; everolimus during the follow up phase (n=42), combination n=22, everolimus after SOC therapy n=20): 13.4 months
median OS ([2]; everolimus during the treatment phase (n=49), combination n=38, everolimus alone n=11): 17.8 months
median overall survival (OS) ([2]; everolimus treated population (n=91), everolimus as 2nd line, combination n=60, everolimus alone n=31): 13.6 months
expression of CD25 on CD8 T cells (MFI) ([3]; 20 ng everolimus): statistically significant increase
expression of CD28 on CD8 T cells (MFI) ([3]; 20 ng everolimus): statistically significant increase
plasma-induced change in frequency of proliferating CD28- CD4 T cells ([3]; 20 ng everolimus on day 0): reversed
frequency of proliferating CD28+ CD4 T cells reduced by mRCC patient plasma ([3]; 20 ng everolimus on day 0, not statistically significant (p<0.087), six plasma samples): partially restored
frequency of CD25+CD28- CD8 T cells among CD25+ CD8 T cells ([3]; 20 ng everolimus, p< 0.001): no longer represented the dominant population
frequency of CD25+CD28+ CD8 T cells ([3]; 20 ng everolimus, p< 0.0061): partial restoration
frequency of CD25+CD28+ CD4 T cells ([3]; 20 ng everolimus, p< 0.045): partial restoration
plasma-induced decrease in frequency of proliferating CD28+ CD8 T cells [3, 6]: reverse
plasma-induced increase in frequency of proliferating CD28- CD8 T cells [3, 6]: reverse
pharmokinetics [4]: more favorable
frequency of CD19+ LAP+ B cells ([5]; stimulated cultures with everolimus): decrease
frequency of LAP+/Ig+ CD38+ B cells ([5]; stimulated with everolimus, sub-gating of LAP+ B cells (3.89% without)): 0.11%
frequency of LAP+CD38+Ig- B cells ([5]; stimulated with everolimus, sub-gating of LAP+ B cells (4.04% without)): 2.63%
frequency of LAP+/Ig+ B cells ([5]; stimulated with everolimus, sub-gating of LAP+ B cells (61.5% without)): 6.14%
